Assay results: PubChem BioAssay (NCI)
Where “and” joins values, the source holds several entries; their conditions need not be identical. Identical values can stand only once.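 1) Cells in 96-well plates. 2) Compound, 48 h, 5 concentrations. 3) Linear interpolation between surrounding doses. 4) Unreached endpoint = highest concentration. Abbreviation: GI50, concentration required for 50% inhibition of growth. At the TGI there is no net growth.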

Experiments:
Test in all cases: inhibition of tumour cell growth, NCI panel, 48 h
HOP-92 NSCLC = tested on: HOP-92 NSCLC
NCI-H23 lung = tested on: NCI-H23 lung
OVCAR-3 ovarian = tested on: OVCAR-3 ovarian
OVCAR-4 ovarian = tested on: OVCAR-4 ovarian
SR leukemia = tested on: SR leukemia
SW-620 colon = tested on: SW-620 colon
HL-60(TB) leukemia = tested on: HL-60(TB) leukemia
TK-10 renal = tested on: TK-10 renal

SMILES	GI50 (HOP-92 NSCLC)	TGI (HOP-92 NSCLC)	GI50 (NCI-H23 lung)	TGI (NCI-H23 lung)	GI50 (OVCAR-3 ovarian)	TGI (OVCAR-3 ovarian)	GI50 (OVCAR-4 ovarian)	TGI (OVCAR-4 ovarian)	GI50 (SR leukemia)	TGI (SR leukemia)	GI50 (SW-620 colon)	TGI (SW-620 colon)	GI50 (HL-60(TB) leukemia)	TGI (HL-60(TB) leukemia)	GI50 (TK-10 renal)	TGI (TK-10 renal)
COc1cc(/C(Cl)=C/C=C/C(=O)c2c(C)[n+]([O-])c3ccc(Cl)cc3[n+]2[O-])cc(OC)c1OC	4.7 µM	28.1 µM	9.36 µM	44.6 µM	2.39 µM	10 µM	5.07 µM	> 50 µM	1.47 µM	4.72 µM	2.24 µM	9.78 µM	–	–	–	–
CN1CCN(c2ccc(C(=O)Nc3n[nH]c4ccc(Cc5cc(F)cc(F)c5)cc34)c(NC3CCOCC3)c2)CC1	0.446 µM and 1.04 µM	3.03 µM and 2.4 µM	2.63 µM and 1.61 µM	> 10 µM and 3.54 µM	3.33 µM and 1.47 µM	> 10 µM and 2.84 µM	6.95 µM and 1.45 µM	> 10 µM and 4.09 µM	0.0734 µM and 0.0312 µM	2.15 µM and 1.69 µM	1.32 µM and 1.33 µM	3.44 µM and 2.76 µM	1.83 µM and 1.66 µM	4.19 µM and 3.38 µM	2.35 µM and 1.42 µM	> 10 µM and 2.78 µM
COc1cc(-c2nn3c(/C=C4/C(=O)Nc5ccccc54)c(-c4ccc(C)cc4)nc3s2)cc(OC)c1OC	0.42 µM	8.99 µM	4.54 µM	25.3 µM	2.9 µM	> 100 µM	–	–	2.35 µM	> 100 µM	–	–	> 100 µM	> 100 µM	1.69 µM	4.38 µM
Cc1c2cnccc2c(C)c2c1c1cc(C3OCCCO3)ccc1n2C	0.281 µM	1.66 µM	0.215 µM	1.21 µM	0.419 µM	2 µM	0.264 µM	1.12 µM	0.0686 µM	1.43 µM	0.205 µM	1.64 µM	0.375 µM	1.77 µM	0.541 µM	4.14 µM
O=C(c1ccccc1)c1c(NCC(O)CN2CCCC2)n(Cc2ccccc2)c(=O)n(Cc2ccccc2)c1=O (stereo unspecified)	–	–	20 µM	44.1 µM	18.4 µM	36.2 µM	23.9 µM	57.1 µM	–	–	15.6 µM	30.4 µM	–	–	19.3 µM	41.6 µM
CC/C(Cc1ccccc1)=C(\c1ccc(OCCN2CCCCCC2)cc1)c1ccc(OC(=O)NCc2ccccc2)cc1	3 µM	9.93 µM	5.89 µM	13.8 µM	1.86 µM	7.13 µM	1.61 µM	6.03 µM	0.821 µM	2.2 µM	1.16 µM	2.49 µM	1.18 µM	3.44 µM	8.2 µM	16 µM
C=CC(=O)Nc1ccc(Nc2nccc(-c3ccc(N4CCCC4)c(C#N)c3)n2)cc1	> 25 µM	> 25 µM	> 25 µM	> 25 µM	> 25 µM	> 25 µM	20.1 µM	> 25 µM	–	–	21.7 µM	> 25 µM	4.88 µM	> 25 µM	10.5 µM	> 25 µM
Cc1[nH]ncc1-c1cc2nc(C3CC4CCN3CC4)[nH]c(=O)c2s1 (stereo unspecified)	5.5 µM	> 100 µM	3.82 µM	> 100 µM	3.74 µM	> 100 µM	9.68 µM	> 100 µM	–	–	2.65 µM	> 100 µM	2.06 µM	6.15 µM	1.9 µM	> 100 µM
O=C(/C=C/c1ccc(B(O)O)cc1)/C=C/c1ccc(B(O)O)cc1	7.94 µM	22.9 µM	2.85 µM	8.69 µM	3.11 µM	9.27 µM	11.4 µM	24 µM	–	–	1.79 µM	4.02 µM	–	–	5.12 µM	17.3 µM
O=[As](O)(O)c1ccc(NCc2ccccc2)cc1	–	> 100 µM	–	> 100 µM	–	> 100 µM	–	> 100 µM	–	> 100 µM	–	–	–	–	–	> 100 µM
CC1=C([Se]CC(OC(=O)[C@@H](CSSC(C)(C)C)NC(=O)OC(C)(C)C)C(=O)NC(C)(C)C)C(=O)c2ccccc2C1=O (stereo partly specified)	–	–	1.82 µM	4.61 µM	1.89 µM	3.3 µM	1.49 µM	2.87 µM	–	–	1.43 µM	2.73 µM	0.255 µM	1.23 µM	1.6 µM	2.95 µM
CN1C(=O)c2c(ccc3c2OCO3)C2C(O)Cc3cc4c(cc3C21)OCO4 (stereo unspecified)	–	> 100 µM	–	> 100 µM	–	> 100 µM	–	> 100 µM	–	–	–	> 100 µM	–	6.3 µM	–	> 100 µM
COc1cc2c(/C=N\N=C(N)N)c(Cl)[nH]c2cc1C	–	–	14.1 µM	28 µM	5.49 µM	20.6 µM	–	–	3.34 µM	8.22 µM	14.7 µM	30.7 µM	–	–	15.7 µM	29.5 µM
O=C(c1ccc2ccccc2c1O)N1CCCCC1	–	> 100 µM	–	90 µM	–	–	–	> 100 µM	–	–	–	> 100 µM	–	> 100 µM	–	> 100 µM
O=S(=O)(Nc1ncccn1)c1ccc(N=Nc2ccc(O)c3ncccc23)cc1	–	–	–	–	6.25 µM	59.4 µM	4.51 µM	71.7 µM	4.62 µM	63 µM	5.67 µM	33.7 µM	6.34 µM	32.1 µM	–	–
Nc1ncnc2c1ncn2C1OC(COP(=O)(O)CP(=O)(O)O)C(O)C1O (stereo unspecified)	–	–	–	> 100 µM	–	–	–	–	–	> 100 µM	–	> 100 µM	–	> 100 µM	–	> 100 µM
Cn1cc(-c2nonc2-c2c[nH]c3ccccc23)c2ccccc21	1.08 µM	9.91 µM	0.85 µM	19.5 µM	0.323 µM	2.01 µM	1.52 µM	17 µM	–	–	0.335 µM	15.6 µM	0.277 µM	0.731 µM	1.55 µM	24.4 µM
Cc1ccc(NCCCN2CCN(CCCNc3ccc(C)c4sc5ccccc5c(=O)c34)CC2)c2c(=O)c3ccccc3sc12	–	–	–	> 100 µM	–	> 100 µM	–	> 100 µM	–	> 100 µM	–	> 100 µM	–	> 100 µM	–	–
COc1ccc(C#Cc2ccccc2C#CCCCCO)cc1	23.5 µM	47.7 µM	19.2 µM	40.5 µM	20.4 µM	40.2 µM	11.2 µM	28.1 µM	–	–	17.8 µM	34.8 µM	23.7 µM	44.7 µM	16.7 µM	35.2 µM
CC(C)(C)OC(=O)NCCNC1=CC(=O)c2nc3ccccc3c3ccnc1c23	17.9 µM	42.5 µM	17.1 µM	46.8 µM	13.8 µM	67 µM	24.3 µM	67.6 µM	–	–	15.1 µM	37.4 µM	12.2 µM	> 100 µM	32.4 µM	99.7 µM
COc1ccc2c(c1)C(=O)c1c-2n(CCCN)c(=O)c2ccccc12	0.181 µM	1.43 µM	0.0497 µM	1.02 µM	0.0957 µM	0.798 µM	0.133 µM	1.61 µM	–	–	< 0.01 µM	1.14 µM	< 0.01 µM	–	0.116 µM	0.98 µM
CC(C)=CCN=C(N)N	–	> 100 µM	–	> 100 µM	–	–	–	> 100 µM	–	83.6 µM	–	> 100 µM	–	> 100 µM	–	> 100 µM
C=C(Cn1c(=O)c2ccccc2c2ccccc21)c1ccc(C(=O)Nc2ccccc2N)cc1	0.689 µM	26.1 µM	30.3 µM	> 100 µM	33.7 µM	> 100 µM	5.22 µM	> 100 µM	–	–	58.7 µM	> 100 µM	0.188 µM	–	33.8 µM	> 100 µM
C=C(CNC(=O)Nc1ccc(-c2ccccc2)cc1)c1ccc(C(=O)Nc2ccccc2N)cc1	–	–	85.3 µM	> 100 µM	> 100 µM	> 100 µM	> 100 µM	> 100 µM	–	–	> 100 µM	> 100 µM	89.7 µM	> 100 µM	> 100 µM	> 100 µM
CC(=O)C1=C(O)C=C2Oc3c(C(=O)/C=C/c4cc(C(F)(F)F)cc(C(F)(F)F)c4)c(O)c(C)c(O)c3[C@]2(C)C1=O	–	–	0.528 µM	2.87 µM	0.543 µM	2.27 µM	0.815 µM	11.3 µM	0.44 µM	3.32 µM	0.553 µM	2.19 µM	0.401 µM	1.14 µM	0.587 µM	8.23 µM
O=P([O-])(O)OP(=O)([O-])O.[NH-][C@H]1CCCC[C@@H]1[NH-].[OH-].[OH-].[Pt+4]	22 µM	60.1 µM	20.8 µM	46.1 µM	21 µM	39 µM	71.2 µM	> 100 µM	–	–	55.8 µM	> 100 µM	–	–	–	–
O=[N+]([O-])c1ccc(Nc2ccccc2-c2ccccc2)c2nonc12	3.15 µM	23.4 µM	8.63 µM	26.1 µM	9.15 µM	22.8 µM	9.5 µM	> 100 µM	–	–	18 µM	44.8 µM	17.8 µM	51.1 µM	22.8 µM	59.6 µM
COc1cccc([C@H]2CC(=O)c3cc4c(cc3N2)OCO4)c1	–	> 100 µM	–	–	0.0415 µM	> 100 µM	–	> 100 µM	–	–	0.0676 µM	> 100 µM	–	–	–	> 100 µM
